# Measured values as given in ChEMBL document CHEMBL2413072, “Synthesis and in vitro anticancer studies of novel C-2 arylidene congeners of lantadenes” (2013).
# Key:
# Type in all cases: functional
# SN12C [1] = assay: Growth inhibition of human SN12C cells assessed as cell growth at 10^-6 M by sulforhodamine B assay; settings: read-out: Activity
# SR = assay: Growth inhibition of human SR cells assessed as cell growth at 10^-7 M by sulforhodamine B assay; settings: read-out: Activity
# COLO 205 = assay: Growth inhibition of human COLO205 cells assessed as cell growth at 10^-6 M by sulforhodamine B assay; settings: read-out: Activity
# IGROV-1 [2] = assay: Growth inhibition of human IGROV1 cells assessed as cell growth at 10^-6 M by sulforhodamine B assay; settings: read-out: Activity
# MDA-MB-435 = assay: Growth inhibition of human MDA-MB-435 cells assessed as cell growth at 10^-4 M by sulforhodamine B assay; settings: read-out: Activity
# [3] = Growth inhibition of human Hs 578T cells assessed as cell growth at 10^-6 M by sulforhodamine B assay; settings: read-out: Activity
# [4] = Growth inhibition of human NCI-ADR-RES cells assessed as cell growth at 10^-8 M by sulforhodamine B assay; settings: read-out: Activity
# IGROV-1 [5] = assay: Growth inhibition of human IGROV1 cells assessed as cell growth at 10^-7 M by sulforhodamine B assay; settings: read-out: Activity
# [6] = Growth inhibition of human HCC2998 cells assessed as cell growth at 10^-7 M by sulforhodamine B assay; settings: HCC 2998, read-out: Activity
# SNB-19 [7] = assay: Growth inhibition of human SNB19 cells assessed as cell growth at 10^-8 M by sulforhodamine B assay; settings: read-out: Activity
# SK-MEL-5 = assay: Growth inhibition of human SK-MEL-5 cells by sulforhodamine B assay
# HL-60(TB) = assay: Growth inhibition of human HL-60(TB) cells assessed as cell growth at 10^-7 M by sulforhodamine B assay; settings: read-out: Activity
# M14 = assay: Growth inhibition of human M14 cells assessed as cell growth at 10^-4 M by sulforhodamine B assay; settings: read-out: Activity
# NCI-H522 = assay: Growth inhibition of human NCI-H522 cells assessed as cell growth at 10^-4 M by sulforhodamine B assay; settings: read-out: Activity
# NCI-H23 = assay: Growth inhibition of human NCI-H23 cells assessed as cell growth at 10^-6 M by sulforhodamine B assay; settings: read-out: Activity
# 786-0 [8] = assay: Growth inhibition of human 786-0 cells assessed as cell growth at 10^-8 M by sulforhodamine B assay; settings: read-out: Activity
# UACC-62 = assay: Growth inhibition of human UACC62 cells assessed as cell growth at 10^-4 M by sulforhodamine B assay; settings: read-out: Activity
# UO-31 = assay: Growth inhibition of human UO31 cells assessed as cell growth at 10^-6 M by sulforhodamine B assay; settings: read-out: Activity
# DU-145 = assay: Growth inhibition of human DU145 cells assessed as cell growth at 10^-7 M by sulforhodamine B assay; settings: read-out: Activity
# SNB-19 [9] = assay: Growth inhibition of human SNB19 cells assessed as cell growth at 10^-6 M by sulforhodamine B assay; settings: read-out: Activity
# NCI-H460 = assay: Growth inhibition of human NCI-H460 cells by sulforhodamine B assay
# PC-3 = assay: Growth inhibition of human PC3 cells assessed as cell growth at 10^-4 M by sulforhodamine B assay; settings: read-out: Activity
# HCT-15 = assay: Growth inhibition of human HCT15 cells by sulforhodamine B assay
# 786-0 [10] = assay: Growth inhibition of human 786-0 cells assessed as cell growth at 10^-4 M by sulforhodamine B assay; settings: read-out: Activity
# OVCAR-8 = assay: Growth inhibition of human OVCAR8 cells assessed as cell growth at 10^-4 M by sulforhodamine B assay; settings: read-out: Activity
# MCF7 = assay: Growth inhibition of human MCF7 cells assessed as cell growth at 10^-6 M by sulforhodamine B assay; settings: read-out: Activity
# HT-29 = assay: Growth inhibition of human HT-29 cells assessed as cell growth at 10^-7 M by sulforhodamine B assay; settings: read-out: Activity
# A549 = assay: Growth inhibition of human A549/ATCC cells assessed as cell growth at 10^-6 M by sulforhodamine B assay; settings: read-out: Activity
# SNB-75 = assay: Growth inhibition of human SNB75 cells by sulforhodamine B assay
# 786-0 [11] = assay: Growth inhibition of human 786-0 cells by sulforhodamine B assay
# HCT-116 = assay: Growth inhibition of human HCT116 cells by sulforhodamine B assay
# MOLT-4 = assay: Growth inhibition of human MOLT4 cells assessed as cell growth at 10^-8 M by sulforhodamine B assay; settings: read-out: Activity
# U-251 [12] = assay: Growth inhibition of human U251 cells assessed as cell growth at 10^-4 M by sulforhodamine B assay; settings: read-out: Activity
# SN12C [13] = assay: Growth inhibition of human SN12C cells by sulforhodamine B assay
# RXF 393 = assay: Growth inhibition of human RXF393 cells assessed as cell growth at 10^-4 M by sulforhodamine B assay; settings: read-out: Activity
# U-251 [14] = assay: Growth inhibition of human U251 cells by sulforhodamine B assay
# MDA-MB-231 = assay: Growth inhibition of human MDA-MB-231 cells assessed as cell growth at 10^-8 M by sulforhodamine B assay; settings: read-out: Activity
# NCI-H322M = assay: Growth inhibition of human NCI-H322M cells assessed as cell growth at 10^-8 M by sulforhodamine B assay; settings: read-out: Activity
# SK-MEL-2 = assay: Growth inhibition of human SK-MEL-2 cells assessed as cell growth at 10^-6 M by sulforhodamine B assay; settings: read-out: Activity
# [15] = read-out: LC50 (the source's name)
# [16] = read-out: pLC50 (the source's name) (converted)
smiles,measurement,setting,value
CC(C)=CC(=O)O[C@@H]1CC(C)(C)C[C@H]2C3=CC[C@@H]4[C@@]5(C)CC[C@H](O)C(C)(C)[C@@H]5CC[C@@]4(C)[C@]3(C)CC[C@@]12C(=O)O [Reduced Lantadene B],growth at 1 µM,SN12C [1],89%
same,growth at 0.1 µM,SR,104%
same,growth at 1 µM,COLO 205,102%
same,growth at 1 µM,IGROV-1 [2],101%
same,growth at 100 µM,MDA-MB-435,-26%
same,growth at 1 µM,[3],92%
same,growth at 0.01 µM,[4],107%
same,growth at 0.1 µM,IGROV-1 [5],106%
same,growth at 0.1 µM,[6],99%
same,growth at 0.01 µM,SNB-19 [7],93%
same,GI50,SK-MEL-5; read-out: GI50,2.86 µM
same,CC50,SK-MEL-5; [15],66.7 µM
same,TGI,SK-MEL-5; read-out: TGI,16.5 µM
same,GI50,SK-MEL-5; read-out: pGI50 (converted),2.88 µM
same,CC50,SK-MEL-5; [16],66.1 µM
same,TGI,SK-MEL-5; read-out: pTGI (converted),16.6 µM
same,growth at 0.1 µM,HL-60(TB),105%
same,growth at 100 µM,M14,-69%
same,growth at 100 µM,NCI-H522,-64%
same,growth at 1 µM,NCI-H23,91%
same,growth at 0.01 µM,786-0 [8],97%
same,growth at 100 µM,UACC-62,-81%
same,growth at 1 µM,UO-31,89%
same,growth at 0.1 µM,DU-145,100%
same,growth at 1 µM,SNB-19 [9],86%
same,GI50,NCI-H460; read-out: GI50,3.07 µM
same,LC50,NCI-H460; read-out: LC50,> 100 µM
same,TGI,NCI-H460; read-out: TGI,66.8 µM
same,GI50,NCI-H460; read-out: pGI50 (converted),3.09 µM
same,LC50,NCI-H460; read-out: pLC50 (converted),> 100 µM
same,TGI,NCI-H460; read-out: pTGI (converted),66.1 µM
same,growth at 100 µM,PC-3,-71%
same,GI50,HCT-15; read-out: GI50,1.56 µM
same,LC50 (50% lethal concentration),HCT-15; read-out: LC50,> 100 µM
same,TGI,HCT-15; read-out: TGI,19.2 µM
same,GI50,HCT-15; read-out: pGI50 (converted),1.55 µM
same,LC50 (50% lethal concentration),HCT-15; read-out: pLC50 (converted),> 100 µM
same,TGI,HCT-15; read-out: pTGI (converted),19.1 µM
same,growth at 100 µM,786-0 [10],-73%
same,growth at 100 µM,OVCAR-8,-40%
same,growth at 1 µM,MCF7,88%
same,growth at 0.1 µM,HT-29,95%
same,growth at 1 µM,A549,34%
same,GI50,SNB-75; read-out: GI50,12.7 µM
same,CC50,SNB-75; [15],> 100 µM
same,TGI,SNB-75; read-out: TGI,41.2 µM
same,GI50,SNB-75; read-out: pGI50 (converted),12.9 µM
same,CC50,SNB-75; [16],> 100 µM
same,TGI,SNB-75; read-out: pTGI (converted),40.7 µM
same,GI50,786-0 [11]; read-out: GI50,3.06 µM
same,CC50,786-0 [11]; [15],50.7 µM
same,TGI,786-0 [11]; read-out: TGI,11.5 µM
same,GI50,786-0 [11]; read-out: pGI50 (converted),3.09 µM
same,CC50,786-0 [11]; [16],51.3 µM
same,TGI,786-0 [11]; read-out: pTGI (converted),11.5 µM
same,GI50,HCT-116; read-out: GI50,2.67 µM
same,LC50,HCT-116; read-out: LC50,50.2 µM
same,TGI,HCT-116; read-out: TGI,15.9 µM
same,GI50,HCT-116; read-out: pGI50 (converted),2.69 µM
same,LC50,HCT-116; read-out: pLC50 (converted),50.1 µM
same,TGI,HCT-116; read-out: pTGI (converted),15.8 µM
same,growth at 0.01 µM,MOLT-4,106%
same,growth at 100 µM,U-251 [12],-61%
same,GI50,SN12C [13]; read-out: GI50,2.88 µM
same,CC50,SN12C [13]; [15],37 µM
same,TGI,SN12C [13]; read-out: TGI,10.9 µM
same,GI50,SN12C [13]; read-out: pGI50 (converted),2.88 µM
same,CC50,SN12C [13]; [16],37.2 µM
same,TGI,SN12C [13]; read-out: pTGI (converted),11 µM
same,growth at 100 µM,RXF 393,-81%
same,GI50,U-251 [14]; read-out: GI50,2.62 µM
same,CC50,U-251 [14]; [15],71.6 µM
same,TGI,U-251 [14]; read-out: TGI,16.7 µM
same,GI50,U-251 [14]; read-out: pGI50 (converted),2.63 µM
same,CC50,U-251 [14]; [16],70.8 µM
same,TGI,U-251 [14]; read-out: pTGI (converted),16.6 µM
same,growth at 0.01 µM,MDA-MB-231,111%
same,growth at 0.01 µM,NCI-H322M,90%
same,growth at 1 µM,SK-MEL-2,107%
